Laboratory results from patent EP4806899A1, “FUSED RING DERIVATIVE, PREPARATION METHOD THEREFOR AND USE THEREOF IN MEDICINE” (Shanghai Qilu Pharmaceutical Research and Development …, priority 2023, dated 2025).

Columns and labels:
human CYP11B2 enzyme = target: T1, human CYP11B2 enzyme (Homo sapiens, UniProt P19099); test: Enzyme inhibition activity assay in G402 cells stably expressing human CYP11B2 (aldosterone production from 11-DOC, LC/MS); type: cell-based; settings: 1 µM 11-DOC, 16 hours, aldosterone detected
T1 construct: the ORF of human CYP11B1 or CYP11B2 were transfected into G402 cells; expressed in transfected cells
T1 sequence (P19099 25-503): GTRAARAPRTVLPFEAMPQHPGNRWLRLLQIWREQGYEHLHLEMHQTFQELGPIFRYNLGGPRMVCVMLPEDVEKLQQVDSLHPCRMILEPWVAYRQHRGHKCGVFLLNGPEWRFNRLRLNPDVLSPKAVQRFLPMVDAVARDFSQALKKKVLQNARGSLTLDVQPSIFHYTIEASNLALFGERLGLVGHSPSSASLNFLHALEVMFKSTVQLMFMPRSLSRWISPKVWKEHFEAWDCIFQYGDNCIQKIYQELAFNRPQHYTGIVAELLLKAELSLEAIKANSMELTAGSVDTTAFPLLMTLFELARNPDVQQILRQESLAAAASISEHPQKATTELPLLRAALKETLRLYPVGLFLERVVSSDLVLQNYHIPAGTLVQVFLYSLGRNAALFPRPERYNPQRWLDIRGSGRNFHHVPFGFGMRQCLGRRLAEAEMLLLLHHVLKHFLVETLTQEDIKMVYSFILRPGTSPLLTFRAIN
Source text: (§1) G402 cells (ATCC, CRL 1440) are epithelioid cells isolated from the kidney of a patient with renal failure and are a type of leiomyoblastoma. For the screening of highly specific CYP11B2 inhibitors, we specifically used G402 cell lines stably expressing human CYP11B2 enzyme or human CYP11B1 enzyme for experimental development.
(§2) Construction of Stably Transfected Cell Lines: Expression plasmids containing suitable promoters, suitable drug resistance markers, and the ORF of human CYP11B1 or CYP11B2 were transfected into G402 cells using standard techniques. The cells were then screened using the specific puromycin resistance marker. Monoclonal cells stably expressing human CYP11B2 were selected for expansion, and 11-deoxycorticosterone (11-DOC) was used as the specific substrate to evaluate enzyme activity based on aldosterone production. Monoclonal cells stably expressing human CYP11B1 were selected for expansion, and 11-deoxycortisol (11-DC) was used as the specific substrate, with cortisol production as the detection target for specific enzyme activity evaluation. The G402 cell lines stably expressing CYP11B1/CYP11B2 were cultured at 37 °C, 5% CO2, 95% air in complete medium (McCoy's 5A + 10% FBS + 1% PS + 0.5 µg/mL puromycin).
(§3) Enzyme Inhibition Activity Assay: CYP11B1 G402/CYP11B2 G402 cells were spread out flatly in cell culture plates. After 24 hours, the medium was changed to an enzyme testing system (DMEM/F12 + 2.5% charcoal-stripped FCS). Small molecule inhibitors at various concentrations were added. After 1 hour, appropriate concentrations of specific substrates (1 µM 11-DOC / 1 µM 11-DC) were added and co-incubated with the cells for 16 hours. Cells were then collected, and specific products were detected using LC/MS methods with an AB SCIEX TRIPLE QUAD 5500+, CTO-40S instrument (CYP11B2 enzyme detecting aldosterone; CYP11B1 enzyme detecting cortisol).
(§4) The IC50 values of the compounds were determined based on the G402 testing system. The dose-dependent inhibition of enzyme activity was calculated by plotting the added inhibitor concentration (x-axis) against the percentage of product inhibitory activity relative to the control group (y-axis) based on product formation at various compound concentrations. The following data were then fitted using the least squares method with XLfit 5.5.0 for a four-parameter logistic curve fit: [formula] • Y-axis: Percentage of product inhibitory activity relative to the control group; • logIC50: IC50 was determined using XLFit.
(§5) The maximum enzyme activity corresponds to the amount of control product steroid/aldosterone in the absence of inhibitor, set as 100%. The minimum enzyme activity corresponds to the amount of reference control product steroid/aldosterone in the presence of inhibitor. Table 3 Inhibitory Activity of the Compounds of the Present Disclosure on CYP11B2 and CYP11B1

human CYP11B1 enzyme = target: T2, human CYP11B1 enzyme (Homo sapiens, UniProt P15538); test: Enzyme inhibition activity assay in G402 cells stably expressing human CYP11B1 (cortisol production from 11-DC, LC/MS); type: cell-based; settings: 1 µM 11-DC, 16 hours, cortisol detected
T2 construct: the ORF of human CYP11B1 or CYP11B2 were transfected into G402 cells; expressed in transfected cells
T2 sequence (P15538 25-503): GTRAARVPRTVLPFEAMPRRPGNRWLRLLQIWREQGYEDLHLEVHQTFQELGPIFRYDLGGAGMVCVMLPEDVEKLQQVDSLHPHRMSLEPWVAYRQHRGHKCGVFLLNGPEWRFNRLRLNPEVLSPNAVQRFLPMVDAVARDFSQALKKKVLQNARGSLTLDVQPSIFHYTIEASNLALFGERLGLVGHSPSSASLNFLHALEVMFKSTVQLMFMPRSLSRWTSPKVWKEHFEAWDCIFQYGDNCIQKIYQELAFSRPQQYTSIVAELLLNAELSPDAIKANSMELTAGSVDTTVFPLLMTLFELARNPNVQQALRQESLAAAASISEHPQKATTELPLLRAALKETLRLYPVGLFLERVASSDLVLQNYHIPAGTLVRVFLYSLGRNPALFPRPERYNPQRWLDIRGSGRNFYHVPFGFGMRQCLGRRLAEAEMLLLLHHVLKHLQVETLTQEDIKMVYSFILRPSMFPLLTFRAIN
Source text: as §1, §2, §3, §4, §5

IC50 (human CYP11B2 enzyme) [nM] | IC50 (human CYP11B1 enzyme) [nM] | SMILES
41.7 | – | CCC(=O)N[C@@H]1COCc2c(-c3ccc4c(c3)CCC(=O)N4C)cncc21 [Compound A01]
5.6 | 244 | CCC(=O)N[C@@H]1CC=Cc2c(-c3ccc4c(c3)CCC(=O)N4C)cncc21 [Compound A04-P1]
7.3 | 1260 | [2H]C([2H])([2H])NC(=O)N[C@@H]1CCOc2c(-c3ccc4c(c3)CCC(=O)N4C)cncc21 [Compound A11]
12.6 | 3120 | CN(C)C(=O)N[C@@H]1CCOc2c(-c3ccc4c(c3)CCC(=O)N4C)cncc21 [Compound A12]
4.5 | 381 | [2H]C([2H])([2H])OC(=O)N[C@@H]1CCOc2c(-c3ccc4c(c3)CCC(=O)N4C)cncc21 [Compound A13]
2.3 | 202 | COC(=O)N[C@@H]1CCOc2c(-c3ccc4c(c3)CCC(=O)N4C)cncc21 [Compound A14]
9.9 | – | [2H]C([2H])([2H])NC(=O)N[C@@H]1CCCc2c(-c3ccc4c(ccc(=O)n4C)c3)cncc21 [Compound A15]
23.1 | – | [2H]C([2H])([2H])NC(=O)N[C@@H]1CCOc2c(-c3ccc4c(ccc(=O)n4C)c3)cncc21 [Compound A17]
7.5 | 517 | [2H]C([2H])([2H])NC(=O)N[C@@H]1CCOc2c(-c3ccc4c(c3)COC(=O)N4C)cncc21 [Compound A18]
35.5 | – | CCC(=O)N[C@@H]1CCOc2c(-c3ccc4c(c3)OCC(=O)N4C)cncc21 [Compound A19]
29.1 | – | CCC(=O)N[C@@H]1CCOc2c(-c3cc(F)c4c(ccc(=O)n4C)c3)cncc21 [Compound A20]
9.4 | 739 | CNC(=O)N[C@@H]1CCCc2c(-c3ccc4c(ccc(=O)n4C)c3)cncc21 [Compound A21]
7.6 | 1190 | [2H]C([2H])([2H])NC(=O)N[C@@H]1CCCc2c(-c3cc(F)c4c(ccc(=O)n4C)c3)cncc21 [Compound A22]
12.5 | 1920 | CN(C)C(=O)N[C@@H]1CCCc2c(-c3ccc4c(ccc(=O)n4C)c3)cncc21 [Compound A23]
11.7 | 1550 | CNC(=O)N[C@@H]1CCCc2c(-c3ccc4c(c3)OCC(=O)N4C)cncc21 [Compound A24]
14.9 | 2150 | [2H]C([2H])([2H])NC(=O)N[C@@H]1CCCc2c(-c3ccc4c(c3)OCC(=O)N4C)cncc21 [Compound A25]
19 | – | CN(C)C(=O)N[C@@H]1CCCc2c(-c3ccc4c(c3)OCC(=O)N4C)cncc21 [Compound A26]
5 | 213 | [2H]C([2H])([2H])OC(=O)N[C@@H]1CCCc2c(-c3ccc4c(ccc(=O)n4C)c3)cncc21 [Compound A27]
3.6 | 111 | [2H]C([2H])([2H])OC(=O)N[C@@H]1CCCc2c(-c3ccc4c(c3)COC(=O)N4C)cncc21 [Compound A28]
8.8 | 479 | [2H]C([2H])([2H])OC(=O)N[C@@H]1CCCc2c(-c3ccc4c(c3)OCC(=O)N4C)cncc21 [Compound A29]
34.7 | – | [2H]C([2H])([2H])NC(=O)N[C@@H]1CCOc2c(-c3ccc4c(c3)OCC(=O)N4C)cncc21 [Compound A32]
9.7 | 312 | CN(C)C(=O)N[C@@H]1CCCc2c(-c3ccc4c(c3)COC(=O)N4C)cncc21 [Compound A33]

IC50 (human CYP11B2 enzyme) [nM] | IC50 (human CYP11B1 enzyme) [nM] | SMILES
7.5 | 294 | CNC(=O)N[C@@H]1CCCc2c(-c3ccc4c(c3)COC(=O)N4C)cncc21 [Compound A34]
1.4 | 184 | COC(=O)N[C@@H]1CCOc2c(-c3ccc4c(c3)cc(C#N)n4C)cncc21 [Compound A35]
1.3 | 136 | [2H]C([2H])([2H])OC(=O)N[C@@H]1CCOc2c(-c3ccc4c(c3)cc(C#N)n4C)cncc21 [Compound A36]
2.5 | 311 | CNC(=O)N[C@@H]1CCOc2c(-c3ccc4c(c3)cc(C#N)n4C)cncc21 [Compound A37]
2.3 | 283 | [2H]C([2H])([2H])NC(=O)N[C@@H]1CCOc2c(-c3ccc4c(c3)cc(C#N)n4C)cncc21 [Compound A38]
10.1 | 1450 | [2H]C([2H])([2H])OC(=O)N[C@@H]1CCOc2c(-c3ccc4c(ccc(=O)n4C)c3)cncc21 [Compound A39]
6.1 | 487 | [2H]C([2H])([2H])OC(=O)N[C@@H]1CCOc2c(-c3ccc4c(c3)COC(=O)N4C)cncc21 [Compound A40]
28.9 | – | [2H]C([2H])([2H])OC(=O)N[C@@H]1CCOc2c(-c3ccc4c(c3)OCC(=O)N4C)cncc21 [Compound A41]
21.9 | – | COC(=O)N[C@@H]1CCOc2c(-c3ccc4c(c3)OCC(=O)N4C)cncc21 [Compound A44]
4.5 | – | CCC(=O)N[C@@H]1CCOc2c(-c3cc(F)c4c(c3)cc(C#N)n4C)cncc21 [Compound A55]
11.6 | – | CCC(=O)N[C@@H]1CCOc2c(-c3cc(Cl)c4c(c3)cc(C#N)n4C)cncc21 [Compound A56]
43.3 | – | CCC(=O)N[C@@H]1CCCc2c(-c3ccc4c(c3)cc(F)c(=O)n4C)cncc21 [Compound C16]
26.5 | – | CCC(=O)N[C@@H]1CCCc2c(-c3ccc4c(cnn4C)c3)cncc21 [Compound C21]
24.2 | – | CCC(=O)N[C@@H]1CCCc2c(-c3ccc4c(c3)CC(=O)N4C)cncc21 [Compound C24]
32.7 | – | CCC(=O)N[C@@H]1CCCc2c(-c3ccc4c(ccc(=O)n4C(F)F)c3)cncc21 [Compound C33]
33 | – | CCC(=O)N[C@@H]1CCCc2c(-c3ccc4c(ccc(=O)n4C)c3F)cncc21 [Compound C45]
5.9 | – | CNC(=O)N[C@@H]1CCCc2c(-c3ccc4c(c3)CCC(=O)N4C)cncc21 [Compound D01]
8.1 | – | CN1C(=O)CCc2cc(-c3cncc4c3CCC[C@H]4N3CCCC3=O)ccc21 [Compound D03]
3.4 | – | COC(=O)N[C@@H]1CCCc2c(-c3ccc4c(c3)CCC(=O)N4C)cncc21 [Compound D05]
33.9 | – | C[C@@H](F)C(=O)N[C@@H]1CCCc2c(-c3ccc4c(c3)CCC(=O)N4C)cncc21 [Compound D07-P1]
13 | – | CN1C(=O)CCc2cc(-c3cncc4c3CCC[C@H]4N3CCC4(CC4)C3=O)ccc21 [Compound D14]
33.3 | – | CN1C(=O)CCc2cc(-c3cncc4c3CCC[C@H]4NC(=O)N3CCC3)ccc21 [Compound D17]

SMILES | IC50 (human CYP11B2 enzyme) [nM] | IC50 (human CYP11B1 enzyme) [nM]
CCC(=O)NC1CCCc2c(-c3cnc4c(c3)CCCN4C(N)=O)cncc21 (centres unmarked) [Compound C02] | 16.9 | –
CCNC(=O)N[C@@H]1CCCc2c(-c3ccc4c(c3)CCC(=O)N4C)cncc21 [Compound D09] | 28.2 | –
